Results taken from patent publication EP4613271A1, “USE OF 1-METHYLNICOTINAMIDE IN PREPARATION OF ANTI-VASCULAR CALCIFICATION DRUG” (The Eight Affiliated Hospital, Sun Yat-Sen University, priority 2023, dated 2024).

Experiments:
[1] = test system: Human vascular smooth muscle cells; assay: phosphorus-induced calcification of vascular smooth muscle cells (alizarin red staining, calcium content); format: cell-based; settings: 100 µM 1-methylnicotinamide, 2.6 mM phosphorus, 7 days
Experimental: • 1. In this example, phosphorus was added to induce vascular calcification in vascular smooth muscle cells, and 1-methylnicotinamide or nicotinamide N-methyltransferase inhibitor (NNMTi) was added for intervention for 7 days, and then alizarin red staining was performed to evaluate the inhibitory effect of 1-methylnicotinamide on vascular calcification. The specific procedure was as follows. Human vascular smooth muscle cells of passages 8-12 were plated in a 12-well plate at 1×10^5/well, and 1 mL of DMEM complete medium was added to each well. On the first day after plating, 2.6 mM phosphorus was added to induce calcification, and 100 µM 1-methylnicotinamide or 25 µM nicotinamide N-methyltransferase inhibitor (NNMTi) was added for intervention. On the fourth day, the DMEM complete medium was replaced and 2.6 mM phosphorus was added to induce calcification again, and 100 µM 1-methylnicotinamide or 25 µM nicotinamide N-methyltransferase inhibitor (NNMTi) was added for intervention. […] After 7 days of intervention with 1-methylnicotinamide or nicotinamide N-methyltransferase inhibitor (NNMTi), a calcium content was determined. […]
(§1) Human vascular smooth muscle cells of passages 8-12 were plated in a 6-well plate at 2×10^5/well, and 2 mL of DMEM complete medium was added to each well. […] On the seventh day, the calcium content was determined.

[2] = test system: Human vascular smooth muscle cells; assay: cisplatin (DDP) and phosphorus-induced calcification of vascular smooth muscle cells under aging conditions (alizarin red staining, calcium content); format: cell-based; settings: 100 µM 1-methylnicotinamide, 2.6 mM phosphorus, 7 days
Experimental: 3. To further verify the effect of 1-methylnicotinamide in inhibiting vascular calcification under aging conditions, cisplatin (DDP) and phosphorus were added to induce calcification in vascular smooth muscle cells. After 7 days of intervention with 1-methylnicotinamide or nicotinamide N-methyltransferase inhibitor (NNMTi), alizarin red staining was performed to further evaluate the inhibitory effect of 1-methylnicotinamide on vascular calcification under aging conditions. The specific procedure was as follows.
Human vascular smooth muscle cells of passages 8-12 were plated in a 12-well plate at 1×10^5/well, and 1 mL of DMEM complete medium was added to each well. On the first day after plating, 2.6 mM phosphorus was added to induce calcification, and 100 µM 1-methylnicotinamide or 25 µM nicotinamide N-methyltransferase inhibitor (NNMTi) was added for intervention. […]
4. Cisplatin and phosphorus were added to induce calcification in vascular smooth muscle cells, and 1-methylnicotinamide or nicotinamide N-methyltransferase inhibitor (NNMTi) was added for intervention for 7 days, and then the calcium content was determined. […]
as §1

[3] = test system: Naturally aged C57BL/6 mice; assay: high-calcium and high-adenine diet-induced vascular calcification in aged mice (aorta alizarin red staining, IHC of aortic rings); format: in vivo; settings: 2.5 months, 25 months old mice
Experimental: • 1. In this example, a high-calcium and high-adenine diet was used to induce vascular calcification in aged mice. After intervention by using 1-methylnicotinamide for 2.5 months, alizarin red staining was performed on the aorta of the mice to evaluate the inhibitory effect of 1-methylnicotinamide on vascular calcification in aged mice. The specific procedure was as follows.
Naturally aged C57BL/6 mice (25 months old) were randomly divided into a control group (n=10), a high-calcium and high-adenine group (n=10), and a high-calcium and high-adenine + 1-methylnicotinamide group (100 mg/kg/day) (n=10), and were fed with normal feed, high-calcium and high-adenine feed, and high-calcium and high-adenine feed and 1-methylnicotinamide respectively, and water is normally provided for each group. The mice were killed after 2.5 months, and the aortas of the mice were obtained for alizarin red staining.
2. To further verify the effect of 1-methylnicotinamide in inhibiting vascular calcification in aged mice, a high-calcium and high-adenine diet was used to induce vascular calcification in aged mice. After 2.5 months of intervention with 1-methylnicotinamide, the IHC staining was performed on α-smooth muscle actin (α-SMA) and bone morphogenetic protein 2 (BMP2) in mouse aortic rings to further evalaute the inhibitory effect of 1-methylnicotinamide on vascular calcification in aged mice. […]

[4] = test system: Human vascular smooth muscle cells; assay: bleomycin (BLM) and phosphorus-induced calcification of vascular smooth muscle cells under aging conditions (alizarin red staining, calcium content); format: cell-based; settings: 100 µM 1-methylnicotinamide, 2.6 mM phosphorus, 1 µg/mL bleomycin, 7 days
Experimental: • 1. In this example, bleomycin (BLM) and phosphorus were added to induce vascular calcification in vascular smooth muscle cells, and 1-methylnicotinamide or nicotinamide N-methyltransferase inhibitor (NNMTi) was added for intervention for 7 days, and then alizarin red staining was performed to evaluate the inhibitory effect of 1-methylnicotinamide on vascular calcification. The specific procedure was as follows. Human vascular smooth muscle cells of passages 8-12 were plated in a 12-well plate at 1×10^5/well, and 1 mL of DMEM complete medium was added to each well. On the first day after plating, 2.6 mM phosphorus was added to induce calcification, and 100 µM 1-methylnicotinamide or 25 µM nicotinamide N-methyltransferase inhibitor (NNMTi) was added for intervention. […] After 7 days of intervention with 1-methylnicotinamide or nicotinamide N-methyltransferase inhibitor (NNMTi), a calcium content was determined. […]
as §1

C[n+]1cccc(C(N)=O)c1 [1-methylnicotinamide]
alizarin red staining ([1]; Fig. 1): could significantly inhibit the occurrence of vascular calcification | calcium content ([1]; Fig. 2): had the effect of inhibiting vascular calcification | calcium content ([2]; 1 µM cisplatin, Panel D of Fig. 3): had the effect of inhibiting vascular calcification under aging conditions | alizarin red staining ([2]; 1 µg/mL cisplatin, Panel C of Fig. 3): could significantly inhibit the calcification of cisplatin-induced aged vascular smooth muscle cells | alizarin red staining of the aorta ([3]; 100 mg/kg/day 1-methylnicotinamide with high-calcium and high-adenine feed, Panel A of Fig. 4): could significantly inhibit vascular calcification in aged mice | IHC staining of α-SMA and BMP2 in aortic rings ([3]; 1-methylnicotinamide with high-calcium and high-adenine feed, Panel B of Fig. 4): could significantly inhibit vascular calcification in aged mice | alizarin red staining ([4]; Panel A of Fig. 3): could significantly inhibit the calcification of bleomycin-induced aged vascular smooth muscle cells | calcium content ([4]; Panel B of Fig. 3): had the effect of inhibiting vascular calcification under aging conditions
